Laboratory results: US9776992B2, “1-oxo-1,2-dihydroisoquinolin-7-yl-(5-substituted-thiophen-2-yl)-sulfonamide compounds, formulations containing those compounds, and their use as AICARFT inhibitors in the treatment of cancers” (Eli Lilly and Company, priority 2014, dated 2017)
pIC50: −log10 of the molar value.

Target: AICARFT (Homo sapiens, UniProt P31939)
Test: AICARFT enzyme assay (LC-MS of IMP and ZMP)
Assay type: biochemical
Set-up: made in house; host or cells: E. coli BL21(DE3)
Details: for pIC50: Mean ± SEM, 25 μM ZMP, 100 μM 10-F-THFA, 3 nM ATIC enzyme, 1 hour at room temperature; for AICARFT inhibition in enzyme assay (in words): summary of Table 15
Procedure: Human AICARFT (NCBI accession number: NM_004044.6) cDNA is purchased from Openbiosystem Co. (Cat# MHS1011-62310, Clone ID: 4300570, accession: BC008879). The nucleotide sequence encoding full-length human AICARFT is inserted into pET21d (Novagen) vector with an N-terminal HIS tag. Bacterial BL21(DE3) (Novagen) is used as an expression host, and the induction of protein expression is carried out in 2×TY media with 1 mM IPTG at 18° C. overnight. Cell pellets are stored at −80° C. for subsequent protein purification. Protein purification is conducted at 4° C. Frozen cell pellets are lysed by incubation with stirring in 50 mL cold lysis buffer (50 mM Tris-HCl, pH 7.5, 300 mM NaCl, 10% glycerol, 0.1% Triton X-100, 0.5 mg/mL lysozyme, 5 U/mL benzonase, 1 mM DTT, 10 mM imidazole, and Roche complete EDTA-free protease inhibitor) per liter cell pellet and sonication. Cell lysates are clarified by centrifugation in a Bechman JA-18 rotor for 45 min at 16,500 rpm. The supernatant is incubated with Ni-NTA agarose resin (Qiagen) for 3 hours, followed by an initial batch wash with 10 resin volume of buffer A (50 mM Tris-HCl, pH 7.5, 300 mM NaCl, 10% glycerol, 1 mM DTT, 10 mM imidazole) containing 0.1% Triton X-100. The resin is then packed onto a column and washed with buffer A. The HIS-tagged AICARFT protein is eluted with 10-500 mM imidazole gradient in buffer A. Pooled HIS-AICARFT containing fractions are concentrated, loaded onto a HiLoad 26/600 Superdex 200 column (GE Healthcare Biosciences), and eluted with storage buffer (50 mM Tris-HCl, pH7.5, 150 mM NaCl, 1 mM DTT, 10% Glycerol). Fractions containing HIS-AICARFT are pooled and protein concentration determined by the Bradford assay using BSA as standard. The protein is aliquoted and stored at −80° C.
One of the substrates of the enzyme reaction, 10-formyltetrahydrofolate (10-F-THFA), has limited chemical stability and is therefore synthesized on the same day that the ATIC enzyme assay is performed. The general synthetic route is described in P. Rowe, Methods Enzymol., 18, 733-735, (1971) and J. Rabinowitz, Methods Enzymol., 6, 814-815, (1963). The first step in this synthesis is the conversion of folinic acid (Sigma CAS 1492-18-8) to 5,10-methenyltetrahydrofolic acid (5,10-M-THFA). This conversion typically takes place the day before the enzyme assay is performed, but can be performed up to 1 week earlier and stored at room temperature. To folinic acid (81.6 mg) is added β-mercaptoethanol (2 mL), and 37% concentrated HCl (80 μL), is added. This reaction incubates a minimum of 3 hours at room temperature, with occasional mixing. The color changes from clear to yellow visually, and the complete conversion of folinic acid to 5,10-M-THFA is monitored by spectral analysis using a quartz cuvette. The UV absorption will change from 266 nm to 356 nm during this step. […] On the morning of the assay, the 80 mM 5,10-M-THFA is diluted to 1.6 mM in 40 μM ammonium bicarbonate (made fresh that day). This reaction incubates 3-5 hours at room temperature. The color changes from yellow to clear visually, and the conversion of 5,10-M-THFA to 10-F-THFA is monitored by spectral analysis using a quartz cuvette. The UV absorption will change from 356 nm to 258 nm during this step. […] Test compounds are prepared in DMSO to make a 10 mM stock solution. The stock solution is serially diluted 3-fold in DMSO to obtain a ten-point dilution curve with final compound concentrations ranging from 100 μM to 5 nM. The final DMSO concentration in the assay is 5%.
To each well of a 384-well polypropylene assay plate (NUNC 264573), […] of DMSO (control wells) or compound in DMSO and 9 μL of 55.56 μM ZMP (Sigma-Aldrich CAS 3031-94-5) in water are added. Then, 10 μL of 200 μM 10-F-THFA and 6 nM ATIC enzyme in 40 μM ammonium bicarbonate is added. […] The assay is incubated for 1 hour at room temperature, after which 40 μL of ACN is added to stop the reaction.

AICARFT, sequence (P31939 whole entry): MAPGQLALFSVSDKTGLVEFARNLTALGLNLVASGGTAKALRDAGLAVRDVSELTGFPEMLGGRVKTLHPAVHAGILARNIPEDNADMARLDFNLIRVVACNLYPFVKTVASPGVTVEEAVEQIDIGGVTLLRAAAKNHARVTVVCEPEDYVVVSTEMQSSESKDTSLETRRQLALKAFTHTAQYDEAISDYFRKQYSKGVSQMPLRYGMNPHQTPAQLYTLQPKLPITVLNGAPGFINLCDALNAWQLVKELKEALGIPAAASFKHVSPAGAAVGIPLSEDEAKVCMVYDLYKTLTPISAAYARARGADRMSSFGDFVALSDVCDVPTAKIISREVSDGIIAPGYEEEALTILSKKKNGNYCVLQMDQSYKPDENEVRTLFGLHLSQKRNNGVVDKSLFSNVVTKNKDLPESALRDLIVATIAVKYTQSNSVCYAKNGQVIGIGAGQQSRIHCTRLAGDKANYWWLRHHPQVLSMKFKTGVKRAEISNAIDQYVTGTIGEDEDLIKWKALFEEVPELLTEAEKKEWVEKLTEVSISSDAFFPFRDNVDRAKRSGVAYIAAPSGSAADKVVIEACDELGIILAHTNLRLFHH

Compound | pIC50 | AICARFT inhibition in enzyme assay (in words)
O=c1[nH]ccc2cc(F)c(NS(=O)(=O)c3ccc(N4C[C@@H](O)[C@@H](F)C4)s3)cc12 (single isomer, unassigned) [Example 33] | 8.11 | inhibit AICARFT
CCC1(C)CC(c2ccc(S(=O)(=O)Nc3cc4c(=O)[nH]ccc4cc3F)s2)=CNC1=O (single isomer, unassigned; isomer 1) [Example 84, 5-(5-Ethyl-5-methyl-6-oxo-1,4,5,6-tetrahydropyridin-3-yl)-N-(6-fluoro-1-oxo-1,2-dihydroisoquinolin-7-yl)thiophe2ne-2-sulfonamide, Isomer 1] | > 8.29 | inhibit AICARFT
O=c1[nH]ccc2cc(F)c(NS(=O)(=O)c3ccc(N4CC[C@@H](O)C4)s3)cc12 [Example 1, N-(6-Fluoro-1-oxo-1,2-dihydroisoquinolin-7-yl)-5-[(3R)-3-hydroxypyrrolidin-1-yl]thiophene-2-sulfonamide] | – | inhibit AICARFT
O=c1[nH]ccc2cc(F)c(NS(=O)(=O)c3ccc(N4C[C@@H](O)C(F)(F)C4)s3)cc12 [Example 41, 5-[(4R)-3,3-difluoro-4-hydroxypyrrolidin-1-yl]-N-(6-fluoro-1-oxo-1,2-dihydroisoquinolin-7-yl)thiophene-2-sulfonamide] | 7.97 | inhibit AICARFT

The remaining lines, values ahead:

pIC50 | AICARFT inhibition in enzyme assay (in words) | Compound
7.54 | inhibit AICARFT | O=c1[nH]ccc2cc(F)c(NS(=O)(=O)c3ccc([C@@H]4CC[C@@H](O)C4)s3)cc12 (single isomer, unassigned) [Example 46]
> 8.29 | inhibit AICARFT | CC1(C)CC(c2ccc(S(=O)(=O)Nc3cc4c(=O)[nH]ccc4cc3F)s2)=CNC1=O [Example 81, 5-(5,5-Dimethyl-6-oxo-1,4,5,6-tetrahydropyridin-3-yl)-N-(6-fluoro-1-oxo-1,2-dihydroisoquinolin-7-yl)thiophene-2-sulfonamide]
